Molecules are shown by their SMILES. Structures can show the parent of a compound that is named as a salt. Where two headings read alike, the source gives them in different places.

Data set [1] in a line: Mouse liver microsomal stability. The format is in vitro ADME. The following applies: stability in pooled mouse (CD-1, male) liver microsomes 0.5 mg/ml, compound 1 μM, parent compound by LC/MS, in % (unit assumed). How it is done: (§1) Working stocks were initially diluted to a concentration of 40.0 μM in 0.1 M potassium phosphate buffer before addition to the reaction vials. Pooled mouse (CD-1, male) or human (50 donors) liver microsomes were utilized at a final concentration of 0.5 mg/ml. Duplicate wells were used for each time point (0 and 30 minutes). Reactions were carried out at 37° C. in a shaker, and the final concentration of DMSO was kept constant at 0.01%. The final volume for each reaction was 100 μL, which includes the addition of an NADPH-Regeneration solution (NRS) mix. This NRS mix is comprised of glucose 6-phosphate dehydrogenase (0.4 U/mL), NADP+ (1.3 mM), MgCl2 (3.3 mM), and glucose 6-phosphate (3.3 mM) in assay mixtures. Upon completion of the 30 minute time point, reactions were terminated by the addition of 1.5-volumes (150 μL) of ice-cold, acetonitrile with 0.5% formic acid and internal standard. Samples were then centrifuged at 4,000 rpm for 10 minutes to remove debris and precipitated protein. Approximately 150 μL of supernatant was subsequently transferred to a new 96 well microplate for LC/MS analysis.
(§2) Narrow-window mass extraction LC/MS analysis was performed for all samples using a Waters Xevo quadrupole time-of-flight (QTof) mass spectrometer and an ACQUITY UPLC system, to determine relative peak areas of parent compound.
(§3) Human and mouse liver microsomes contain a wide variety of drug metabolizing enzymes and are commonly used to support in vitro ADME (absorption, distribution, metabolism and excretion) studies. These microsomes are used to examine the potential first-pass metabolism by-products of orally administered drugs. Representative compounds of the application were evaluated for their stability in human and mouse liver microsomes.

A short description of data set [2]: Human liver microsomal stability. The format is in vitro ADME. The following applies: stability in pooled human (50 donors) liver microsomes 0.5 mg/ml, compound 1 μM, parent compound by LC/MS. Here is the method: as §1, §2, §3
(In general: Liver microsomes are a subcellular fraction often used to study metabolism.)

A further data set deals with T1, P-gp (Homo sapiens, UniProt P08183).
T1 construct: host or cells: Caco-2 (C2BBe1)
In words: Evaluation of P-gp efflux in Caco-2 cell monolayers.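 Note: Caco-2 monolayers dosed apically or basolaterally with test compound at 5 µM in HBSS with HEPES and glucose, 37 °C, donor and receiver sampled after 120 min, LC/MS peak areas.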 The format is in vitro ADME.

The next data set concerns the target T2, EGFR (Homo sapiens, UniProt P00533).
T2 construct: purchased Reaction Biology
The experiment in a line: Kinase HotSpot profiling (Reaction Biology), 33P-ATP filter-binding. The note with it: WT EGFR. The format is biochemical. Here is the method:
(§4) Base Reaction buffer; 20 mM Hepes (pH 7.5), 10 mM MgCl2, 1 mM EGTA, 0.02% Brij35, 0.02 mg/ml BSA, 0.1 mM Na3VO4, 2 mM DTT, 1% DMSO
(§5) *Required cofactors are added individually to each kinase reaction
(§6) 1. The indicated substrate was prepared in fresh Base Reaction Buffer.
(§7) 2. Any required cofactors were added to the substrate solution above.
(§8) 3. Indicated kinase was added into the substrate solution and gently mixed.
(§9) 4. Compounds in DMSO were added into the kinase reaction mixture by Acoustic technology (Echo550; nanoliter range) and incubated for 20 minutes at room temperature.
(§10) 5. 33P-ATP (specific activity 10 μCi/μl) was added into the reaction mixture to initiate the reaction.
(§11) 6. The kinase reaction was incubated for 2 hours at room temperature
(§12) 7. Reactions were spotted onto P81 ion exchange paper.
(§13) 8. Kinase activity was detected by filter-binding method.
(§14) Representative compounds of Formula I were evaluated against WT EGFR and mutant EGFR (L858R and L858R, T790M) kinases. IC50 concentrations are illustrated in Table 9.

Another data set concerns the target T3, EGFR (L858R) (Homo sapiens, UniProt P00533, L858R).
T3 construct: purchased Reaction Biology
Described as above. The format is biochemical. The note with it: mutant EGFR L858R. Here is the method:
as §4, §5, §6, §7, §8, §9, §10, §11, §12, §13, §14

Data set [3] in a line: Brain concentrations after PO administration in rat, peak at 8 hours (Table 5). The format is in vivo. The note with it: brain, PO 50 mg/kg, Table 5 (8 hours).
The mark [4] stands for this setting: Caco-2, pH 7.4, with none (verapamil 0 μM), Caco-2, Verapamil 0 μM, read-out: Recovery (%) AP-BL.
The mark [5] stands for this setting: Caco-2, pH 7.4, with none (verapamil 0 μM), Caco-2, Verapamil 0 μM, read-out: Recovery (%) BL-AP.
Setting [6] is: Caco-2, pH 7.4, with verapamil 100 μM, Caco-2, Verapamil 100 μM, read-out: Recovery (%) AP-BL.
Where [7] appears, read: Caco-2, pH 7.4, with verapamil 100 μM, Caco-2, Verapamil 100 μM, read-out: Recovery (%) BL-AP.

T1 sequence (P08183 whole entry): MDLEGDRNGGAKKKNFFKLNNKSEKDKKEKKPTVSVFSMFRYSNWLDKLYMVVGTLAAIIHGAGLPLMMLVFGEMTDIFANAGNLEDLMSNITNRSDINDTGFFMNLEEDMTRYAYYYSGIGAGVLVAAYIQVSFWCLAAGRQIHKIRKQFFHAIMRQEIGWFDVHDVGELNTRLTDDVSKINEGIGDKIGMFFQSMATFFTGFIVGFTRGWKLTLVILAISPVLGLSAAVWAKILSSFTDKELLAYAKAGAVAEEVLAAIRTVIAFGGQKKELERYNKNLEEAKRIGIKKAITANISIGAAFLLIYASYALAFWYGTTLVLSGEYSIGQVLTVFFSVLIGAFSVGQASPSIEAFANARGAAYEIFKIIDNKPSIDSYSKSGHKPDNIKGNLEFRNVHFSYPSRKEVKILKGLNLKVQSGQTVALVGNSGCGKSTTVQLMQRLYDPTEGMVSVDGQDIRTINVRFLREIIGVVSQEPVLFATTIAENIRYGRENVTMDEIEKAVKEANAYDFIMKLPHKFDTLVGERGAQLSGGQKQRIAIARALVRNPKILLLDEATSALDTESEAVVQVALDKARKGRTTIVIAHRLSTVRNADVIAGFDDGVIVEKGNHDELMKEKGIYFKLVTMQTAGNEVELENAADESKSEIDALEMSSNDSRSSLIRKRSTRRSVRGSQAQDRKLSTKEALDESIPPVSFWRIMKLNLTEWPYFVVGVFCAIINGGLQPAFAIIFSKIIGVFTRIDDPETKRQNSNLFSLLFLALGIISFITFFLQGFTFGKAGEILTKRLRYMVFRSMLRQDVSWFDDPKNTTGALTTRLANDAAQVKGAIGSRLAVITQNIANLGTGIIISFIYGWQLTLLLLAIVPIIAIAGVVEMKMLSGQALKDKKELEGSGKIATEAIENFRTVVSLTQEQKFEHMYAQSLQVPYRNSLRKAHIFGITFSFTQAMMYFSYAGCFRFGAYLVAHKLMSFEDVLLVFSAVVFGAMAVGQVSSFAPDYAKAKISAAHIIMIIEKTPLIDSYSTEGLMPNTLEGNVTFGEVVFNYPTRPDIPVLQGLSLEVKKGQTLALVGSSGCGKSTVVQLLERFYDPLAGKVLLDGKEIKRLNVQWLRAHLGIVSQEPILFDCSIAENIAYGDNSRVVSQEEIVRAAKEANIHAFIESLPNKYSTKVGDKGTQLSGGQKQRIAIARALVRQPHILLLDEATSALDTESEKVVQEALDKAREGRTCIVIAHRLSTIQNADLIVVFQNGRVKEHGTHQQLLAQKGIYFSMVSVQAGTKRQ
T2 sequence (P00533 25-1210): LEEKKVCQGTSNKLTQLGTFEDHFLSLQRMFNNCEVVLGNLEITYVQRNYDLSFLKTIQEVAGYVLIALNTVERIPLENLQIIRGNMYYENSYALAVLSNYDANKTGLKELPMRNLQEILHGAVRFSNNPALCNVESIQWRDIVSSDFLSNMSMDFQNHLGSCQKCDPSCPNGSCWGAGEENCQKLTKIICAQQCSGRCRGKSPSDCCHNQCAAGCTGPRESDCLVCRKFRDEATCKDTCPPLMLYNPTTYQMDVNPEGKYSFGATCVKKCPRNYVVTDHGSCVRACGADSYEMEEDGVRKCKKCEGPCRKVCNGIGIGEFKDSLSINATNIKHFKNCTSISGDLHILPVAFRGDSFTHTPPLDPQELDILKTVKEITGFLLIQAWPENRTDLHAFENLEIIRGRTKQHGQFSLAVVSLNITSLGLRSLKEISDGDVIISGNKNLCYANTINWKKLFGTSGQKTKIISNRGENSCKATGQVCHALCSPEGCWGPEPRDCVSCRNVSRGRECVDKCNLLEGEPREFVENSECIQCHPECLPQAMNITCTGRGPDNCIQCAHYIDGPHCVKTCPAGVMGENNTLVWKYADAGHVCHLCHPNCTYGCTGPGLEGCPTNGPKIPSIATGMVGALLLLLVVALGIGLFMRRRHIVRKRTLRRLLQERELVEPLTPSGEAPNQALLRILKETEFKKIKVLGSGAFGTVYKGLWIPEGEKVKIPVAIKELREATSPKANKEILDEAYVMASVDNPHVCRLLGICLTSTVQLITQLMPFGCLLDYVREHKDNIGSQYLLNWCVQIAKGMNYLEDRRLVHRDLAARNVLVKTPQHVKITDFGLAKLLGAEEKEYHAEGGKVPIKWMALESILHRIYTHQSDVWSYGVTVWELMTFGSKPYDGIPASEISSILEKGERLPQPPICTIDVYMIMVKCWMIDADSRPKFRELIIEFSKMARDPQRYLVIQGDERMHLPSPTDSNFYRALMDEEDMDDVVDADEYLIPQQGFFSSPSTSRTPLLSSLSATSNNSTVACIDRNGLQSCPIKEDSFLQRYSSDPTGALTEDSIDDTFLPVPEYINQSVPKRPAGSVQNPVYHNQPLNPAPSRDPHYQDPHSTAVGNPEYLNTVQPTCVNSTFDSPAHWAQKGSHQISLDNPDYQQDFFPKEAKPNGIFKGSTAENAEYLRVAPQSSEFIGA
T3 sequence (P00533 25-1210 L858R): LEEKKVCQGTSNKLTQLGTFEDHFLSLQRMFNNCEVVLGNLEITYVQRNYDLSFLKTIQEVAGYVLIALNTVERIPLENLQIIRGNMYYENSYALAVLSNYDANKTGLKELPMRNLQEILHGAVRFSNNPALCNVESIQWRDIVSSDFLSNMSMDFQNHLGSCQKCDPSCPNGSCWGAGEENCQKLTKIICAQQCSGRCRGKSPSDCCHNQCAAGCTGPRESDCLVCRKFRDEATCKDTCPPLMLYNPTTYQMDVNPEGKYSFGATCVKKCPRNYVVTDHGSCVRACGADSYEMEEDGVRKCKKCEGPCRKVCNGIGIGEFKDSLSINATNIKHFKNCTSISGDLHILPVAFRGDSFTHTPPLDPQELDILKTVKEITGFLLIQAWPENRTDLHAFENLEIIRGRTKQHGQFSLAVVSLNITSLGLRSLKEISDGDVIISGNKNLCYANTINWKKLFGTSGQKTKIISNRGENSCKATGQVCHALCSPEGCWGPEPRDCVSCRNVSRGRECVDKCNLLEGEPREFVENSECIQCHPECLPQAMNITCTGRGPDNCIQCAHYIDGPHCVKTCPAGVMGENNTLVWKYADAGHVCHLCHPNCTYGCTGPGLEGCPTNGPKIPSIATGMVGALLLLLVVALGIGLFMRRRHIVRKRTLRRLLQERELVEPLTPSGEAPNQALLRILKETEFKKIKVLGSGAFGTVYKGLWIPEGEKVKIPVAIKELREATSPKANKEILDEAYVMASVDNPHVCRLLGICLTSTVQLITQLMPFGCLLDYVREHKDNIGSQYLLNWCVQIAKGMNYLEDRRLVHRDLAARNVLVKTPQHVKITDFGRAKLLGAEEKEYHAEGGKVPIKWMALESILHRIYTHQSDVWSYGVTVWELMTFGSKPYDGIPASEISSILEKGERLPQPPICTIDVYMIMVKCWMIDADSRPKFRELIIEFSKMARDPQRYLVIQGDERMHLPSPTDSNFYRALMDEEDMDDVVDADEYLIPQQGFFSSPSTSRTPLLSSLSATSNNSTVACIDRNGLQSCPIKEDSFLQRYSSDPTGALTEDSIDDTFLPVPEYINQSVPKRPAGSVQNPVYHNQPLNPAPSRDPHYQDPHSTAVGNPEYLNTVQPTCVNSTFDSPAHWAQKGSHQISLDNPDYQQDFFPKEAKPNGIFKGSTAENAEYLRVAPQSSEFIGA

As for `FC(F)OCCOc1cc2ncnc(Nc3ccccc3C(F)(F)F)c2cc1OCCOC(F)F` [2(Ee), 6,7-bis[2-(difluoromethoxy)ethoxy]-N-[2-(trifluoromethyl)phenyl]quinazolin-4-amine], the “MLM (30 min)” value in data set [1] is reported as 11.8. Also, in data set [2], the HLM (30 min) was found to be 49.2%.
As to `C[C@H]1O[C@@H](O[C@H]2[C@@H](O)C[C@H](O[C@H]3[C@@H](O)C[C@H](O[C@H]4CC[C@@]5(C)[C@H](CC[C@@H]6[C@@H]5C[C@@H](O)[C@]5(C)[C@@H](C7=CC(=O)OC7)CC[C@]65O)C4)O[C@@H]3C)O[C@@H]2C)C[C@H](O)[C@@H]1O` [Digoxin], the recovery at 120 min, 5 μM on P-gp (setting [4]) was found to be 76.9%; at P-gp (setting [5]), 84.3%; at P-gp (setting [6]) it was 90.3%; on P-gp (setting [7]), 99.7%. This molecule came in with a Papp A→B at 120 min, 5 μM on P-gp (pH 7.4, Caco-2, Verapamil 0 μM) of 0.64 ×10⁻⁶ cm/s. Further, on P-gp (pH 7.4, Caco-2, Verapamil 0 μM), the Papp B→A at 120 min, 5 μM was determined as 15.8 ×10⁻⁶ cm/s.
Regarding `Fc1c(Nc2ncnc3cc(OCCOC(F)F)c(OCCOC(F)F)cc23)ccc(Cl)c1Cl` [2(a), N-(3,4-dichloro-2-fluoro-phenyl)-6,7-bis[2 (difluoromethoxy)ethoxy]quinazolin-4-amine], the “MLM (30 min)” value in data set [1] is recorded as 72.5. Further, the HLM (30 min) in data set [2] is 90.7%.
Regarding `COc1cc2ncnc(Nc3ccc(F)c(Cl)c3F)c2cc1NC(=O)N1CC(OC(F)F)C1` [3(B), N-[4-(3-chloro-2,4-difluoro-anilino)-7-methoxy-quinazolin-6-yl]-3-(difluoromethoxy)azetidine-1-carboxamide], the IC50 at EGFR is 0.0125 nM; on EGFR (L858R), 0.0138 nM.
Taken in the same sequence, the figures for `COc1cc2ncnc(Nc3ccc(F)c(Cl)c3F)c2cc1OC(=O)N1CCC[C@H](OC(F)F)C1` [2(Pp), [4-(3-chloro-2,4-difluoro-anilino)-7-methoxy-quinazolin-6-yl] (3S)-3-(difluoromethoxy)piperidine-1-carboxylate] were 0.143 nM and 0.345 nM.
The corresponding values for `C#Cc1cccc(Nc2ncnc3cc(OCCOC(F)F)c(OCCOC(F)F)cc23)c1F` [2(Nn)] are 0.587 nM and 0.977 nM.
For the molecule `CC(C)NCC(O)COc1cccc2ccccc12` (centres unmarked) [Propranolol], the recovery at 120 min, 5 μM on P-gp (setting [4]) came to 69.8%. Further, at P-gp (setting [5]), the recovery at 120 min, 5 μM worked out at 85%. Further, on P-gp (pH 7.4, Caco-2, Verapamil 0 μM), the Papp A→B at 120 min, 5 μM came out at 25.1 ×10⁻⁶ cm/s; the apparent permeability from basolateral to apical (Papp B→A) at 120 min, 5 μM was 16.3 ×10⁻⁶ cm/s; the efflux ratio at 120 min, 5 µM came out at 0.65.
As to `FC(F)OCCOc1cc2ncnc(Nc3ccc(C(F)(F)F)cc3)c2cc1OCCOC(F)F` [2(Gg), 6,7-bis[2-(difluoromethoxy)ethoxy]-N-[4-(trifluoromethyl)phenyl]quinazolin-4-amine], the “MLM (30 min)” value in data set [1] came to 106.2. Also, the HLM (30 min) in data set [2] turned out to be 99.8%.
With `Fc1cccc(F)c1Nc1ncnc2cc(OCCOC(F)F)c(OCCOC(F)F)cc12` [2(Kk), 6,7-bis[2-(difluoromethoxy)ethoxy]-N-(2,6-difluorophenyl)quinazolin-4-amine], the “MLM (30 min)” value in data set [1] was 43.7. For the same molecule, the HLM (30 min) in data set [2] amounted to 77.6%.
The corresponding values for `Fc1c(Cl)cccc1Nc1ncnc2cc(OCCOC(F)F)c(OCCOC(F)F)cc12` [2(Ff), N-(3-chloro-2-fluoro-phenyl)-6,7-bis[2-(difluoromethoxy)ethoxy]quinazolin-4-amine] are 69.6 and 76.4%.
Taken in the same sequence, the figures for `COc1cc2ncnc(Nc3cccc(Cl)c3F)c2cc1OCCOC(F)F` [2(i), N-(3-chloro-2-fluoro-phenyl)-6-[2-(difluoromethoxy)ethoxy]-7-methoxy-quinazolin-4-amine] were 1.5 and 19.7%.
The corresponding values for `Fc1cc(Cl)ccc1Nc1ncnc2cc(OCCOC(F)F)c(OCCOC(F)F)cc12` [2(e), N-(4-chloro-2-fluoro-phenyl)-6,7-bis[2-(difluoromethoxy)ethoxy]quinazolin-4-amine] are 67.8 and 89.6%.
Consider `C#Cc1cccc(Nc2ncnc3cc(OCCOC(F)F)c(OCCOC(F)F)cc23)c1` [2(b), 6,7-bis[2-(difluoromethoxy)ethoxy]-N-(3-ethynylphenyl)quinazolin-4-amine], for which the “MLM (30 min)” value in data set [1] came out at 94.3. In addition, the HLM (30 min) in data set [2] is 96.4%.
In the case of `COc1cc2ncnc(Nc3ccc(F)c(Cl)c3F)c2cc1NC(=O)N1CCC(COC(F)F)CC1` [3(A), N-[4-(3-chloro-2,4-difluoro-anilino)-7-methoxy-quinazolin-6-yl]-4-(difluoromethoxymethyl)piperidine-1-carboxamide], the IC50 on EGFR worked out at 0.0298 nM; on EGFR (L858R), 0.0891 nM.
With `Fc1cc(F)c(Nc2ncnc3cc(OCCOC(F)F)c(OCCOC(F)F)cc23)c(F)c1` [2(Ll), 6,7-bis[2-(difluoromethoxy)ethoxy]-N-(2,4,6-trifluorophenyl)quinazolin-4-amine], the “MLM (30 min)” value in data set [1] came to 39.3. Moreover, the HLM (30 min) in data set [2] amounted to 82.1%.
Taken in the same sequence, the figures for `FC(F)OCCOc1cc2ncnc(Nc3ccccc3Cl)c2cc1OCCOC(F)F` [2(Dd)] were 22.2 and 54.7%.
Taken in the same sequence, the figures for `Fc1ccc(Nc2ncnc3cc(OCCOC(F)F)c(OCCOC(F)F)cc23)cc1Cl` [2(c), N-(3-chloro-4-fluoro-phenyl)-6,7-bis[2-(difluoromethoxy)ethoxy]quinazolin-4-amine] were 94.6 and 88.5%.
As for `COc1cc2ncnc(Nc3ccc(F)c(Cl)c3F)c2cc1OC(=O)N1CCC(OC(F)F)CC1` [2(Oo), [4-(3-chloro-2,4-difluoro-anilino)-7-methoxy-quinazolin-6-yl] 4-(difluoromethoxy)piperidine-1-carboxylate], the IC50 is 0.0205 nM at EGFR and 0.052 nM on EGFR (L858R).
In the case of `Fc1ccc(Nc2ncnc3cc(OCCOC(F)F)c(OCCOC(F)F)cc23)c(F)c1Cl` [2(d), N-(3-chloro-2,4-difluoro-phenyl)-6,7-bis[2-(difluoromethoxy)ethoxy]quinazolin-4-amine], the “MLM (30 min)” value in data set [1] is reported as 90.4. Further, in data set [2], the HLM (30 min) was 83.1%.
Taken in the same sequence, the figures for `Fc1ccccc1Nc1ncnc2cc(OCCOC(F)F)c(OCCOC(F)F)cc12` [2(Hh), 6,7-bis[2-(difluoromethoxy)ethoxy]-N-(2-fluorophenyl)quinazolin-4-amine] were 51.8 and 71.6%.
The corresponding values for `COc1cc2ncnc(Nc3ccc(F)c(Cl)c3F)c2cc1OCCOC(F)F` [2(k), N-(3-chloro-2,4-difluoro-phenyl)-6-[2-(difluoromethoxy)ethoxy]-7-methoxy-quinazolin-4-amine] are 0.7 and 60.4%.
Turning to `C#Cc1cccc(Nc2ncnc3cc(OCCOC)c(OCCOC)cc23)c1` [Erlotinib•HCl, N-(3-ethynylphenyl)-6,7-bis(2-methoxyethoxy)quinazolin-4-amine], the recovery at 120 min, 5 μM was 55.5% at P-gp (setting [4]), 56.2% at P-gp (setting [5]), 76.8% on P-gp (setting [6]) and 58% at P-gp (setting [7]). Further, the Papp A→B at 120 min, 5 μM at P-gp (pH 7.4, Caco-2, Verapamil 0 μM) came out at 16 ×10⁻⁶ cm/s. The same molecule showed a Papp B→A at 120 min, 5 μM on P-gp (pH 7.4, Caco-2, Verapamil 0 μM) of 13.9 ×10⁻⁶ cm/s. The peak level in data set [3] (Sprague-Dawley) (Cmax) was 828 ng/g. Further, the time to peak (Tmax) in data set [3] (Sprague-Dawley) is 8 h. The same molecule showed an AUCInf in data set [3] of 18449 ng·h/g. The same molecule came in with an AUClast in data set [3] of 14522 ng·h/g.

For orientation: Papp A→B means the apparent permeability from the apical to the basolateral side of a cell layer. Read a low Papp A→B as poor permeation. The Papp B→A is the apparent permeability from the basolateral to the apical side of a cell layer. What is called IC50 is the midpoint of a concentration-inhibition curve. Higher therefore signals weaker potency. The efflux ratio is a quotient of directional permeabilities that is used to spot active efflux. Usually Cmax stands for the maximum level reached in the sampled fluid or tissue. For orientation: Tmax means the time from dosing to the highest level.
